Test results published in paper PMC8047011, “Enantiomers of 2-methylglutamate and 2-methylglutamine selectively impact mouse brain metabolism and behavior” (Scientific Reports, 2021).

Experiments:
GABAA α2β2γ2 = molecular target: T1, GABAA α2β2γ2 (Homo sapiens, UniProt P47869+P47870); test: FLIPR functional receptor assay, GABAA α2β2γ2; type: cell-based; conditions: agonist mode; top test concentration 1 mM
T1 construct: host or cells: HEK 293
Method: (§1) Receptor functional & binding assays
(§2) Functional assays of all GABAA, NMDA (GluN2A–GluN2D) and AMPA (GluA2) receptor subunits were performed by SB Drug Discovery as a part of their CNS discovery panel using FLIPR technology. Briefly, receptor-expressing HEK 293 cell lines were incubated in a red membrane potential dye in HEPES:HBSS pH 7.4 buffer and the fluorescence (λex: 488, λex: 510–570) was monitored over time as the test compounds and/or reference compounds were added to the solution. In agonist assay, only test compounds were added. In positive allosteric modulator assay, cells were preincubated with test compounds and then low concentration (approximately EC20) of an appropriate agonist was added. In antagonist assay, cells were preincubated with test compounds and then high concentration (approximately EC80) of an appropriate agonist was added. For GABAA assays, GABA was used as the agonist, picrotoxin was used as the reference antagonist and allopregnanolone was used as the reference positive allosteric modulator (PAM). For NMDA assays, a mixture of glutamate, glycine and CaCl2 was used as the agonist, MK801 was the reference antagonist and pregnenolone sulfate or GNE 9278 were used as reference PAMs. […] All compounds were tested at 7 concentration points in triplicate and EC50/IC50 was determined where applicable. […]

AMPA nonspecific = test: Nonspecific AMPA binding assay; conditions: 100 μM, triplicate; rat
Method: Nonspecific AMPA, kainate and NMDA binding assays were performed by Eurofins Discovery
(Cerep) using rat cerebral cortex membranes and radiolabeled [3H]AMPA, [3H]kainic acid and
[3H]CGP 39653, respectively. […]

GABAA α4β3γ2 = molecular target: T2, GABAA α4β3γ2 (Homo sapiens, UniProt P28472+P48169); test: FLIPR functional receptor assay, GABAA α4β3γ2; type: cell-based; conditions: agonist mode; top test concentration 1 mM
T2 construct: host or cells: HEK 293
Method: (§3) intensity and lower number of tone and shock (2x) pairings to create a greater opportunity to observe pharmacologic activity.
as §1
as §2, with “(PAM).” for “(PAM). For NMDA assays, a mixture of glutamate, glycine and CaCl2 was used as the agonist, MK801 was the reference antagonist and pregnenolone sulfate or GNE 9278 were used as reference PAMs.”

GABAA α4β2γ2 = molecular target: T3, GABAA α4β2γ2 (Homo sapiens, UniProt P47870+P48169); test: FLIPR functional receptor assay, GABAA α4β2γ2; type: cell-based; conditions: agonist mode; top test concentration 1 mM
T3 construct: host or cells: HEK 293
Method: as §3, §1
as §2, with “(PAM).” for “(PAM). For NMDA assays, a mixture of glutamate, glycine and CaCl2 was used as the agonist, MK801 was the reference antagonist and pregnenolone sulfate or GNE 9278 were used as reference PAMs.”

GABAB (B1/B2) = molecular target: T4, GABAB (B1/B2) (Homo sapiens, UniProt Q9UBS5); test: GABAB binding assay (B1/B2; nonsel); conditions: triplicate, rat, read-out: % of radioligand binding inhibition, GABAB nonsel
T4 construct: purchased SB Drug Discovery (CNS discovery panel, FLIPR); Eurofins Discovery (Cerep)
Method: mGluR1, mGluR2, mGluR5 and GABAB binding assays were performed by Eurofins Discovery. […]
mGluR5 and GABAB binding assays were performed using recombinant CHO-K1 cells and
[3H]CGP-54626 and [3H]quisqalic acid, respectively. All compounds were tested at a single
concentration of 100 uM in triplicate. […]

T4 sequence (Q9UBS5 20-961): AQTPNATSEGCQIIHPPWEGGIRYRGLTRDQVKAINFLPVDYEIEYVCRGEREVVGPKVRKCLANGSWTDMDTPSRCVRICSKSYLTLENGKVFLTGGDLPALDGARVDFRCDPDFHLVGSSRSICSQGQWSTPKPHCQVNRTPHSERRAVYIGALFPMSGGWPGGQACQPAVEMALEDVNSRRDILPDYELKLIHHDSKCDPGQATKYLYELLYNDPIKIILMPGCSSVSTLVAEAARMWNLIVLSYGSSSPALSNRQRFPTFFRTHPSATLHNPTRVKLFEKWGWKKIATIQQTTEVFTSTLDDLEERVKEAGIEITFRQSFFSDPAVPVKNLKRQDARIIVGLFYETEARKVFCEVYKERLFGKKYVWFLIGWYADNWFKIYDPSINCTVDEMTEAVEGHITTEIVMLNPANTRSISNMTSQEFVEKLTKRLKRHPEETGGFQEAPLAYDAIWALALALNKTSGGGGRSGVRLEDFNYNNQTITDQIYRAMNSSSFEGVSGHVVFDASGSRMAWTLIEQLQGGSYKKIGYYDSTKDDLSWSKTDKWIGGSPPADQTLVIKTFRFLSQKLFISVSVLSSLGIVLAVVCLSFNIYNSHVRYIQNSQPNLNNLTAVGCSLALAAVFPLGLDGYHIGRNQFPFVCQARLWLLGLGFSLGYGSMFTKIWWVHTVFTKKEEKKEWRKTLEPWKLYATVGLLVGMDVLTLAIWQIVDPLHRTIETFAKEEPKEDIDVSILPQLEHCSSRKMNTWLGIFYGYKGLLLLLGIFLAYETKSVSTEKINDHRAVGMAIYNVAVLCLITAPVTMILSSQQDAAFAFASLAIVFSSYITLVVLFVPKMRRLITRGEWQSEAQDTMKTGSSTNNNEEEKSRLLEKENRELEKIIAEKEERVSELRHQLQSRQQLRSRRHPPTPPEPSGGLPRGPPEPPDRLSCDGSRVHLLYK
T4 sequence (O75899 42-941 partner): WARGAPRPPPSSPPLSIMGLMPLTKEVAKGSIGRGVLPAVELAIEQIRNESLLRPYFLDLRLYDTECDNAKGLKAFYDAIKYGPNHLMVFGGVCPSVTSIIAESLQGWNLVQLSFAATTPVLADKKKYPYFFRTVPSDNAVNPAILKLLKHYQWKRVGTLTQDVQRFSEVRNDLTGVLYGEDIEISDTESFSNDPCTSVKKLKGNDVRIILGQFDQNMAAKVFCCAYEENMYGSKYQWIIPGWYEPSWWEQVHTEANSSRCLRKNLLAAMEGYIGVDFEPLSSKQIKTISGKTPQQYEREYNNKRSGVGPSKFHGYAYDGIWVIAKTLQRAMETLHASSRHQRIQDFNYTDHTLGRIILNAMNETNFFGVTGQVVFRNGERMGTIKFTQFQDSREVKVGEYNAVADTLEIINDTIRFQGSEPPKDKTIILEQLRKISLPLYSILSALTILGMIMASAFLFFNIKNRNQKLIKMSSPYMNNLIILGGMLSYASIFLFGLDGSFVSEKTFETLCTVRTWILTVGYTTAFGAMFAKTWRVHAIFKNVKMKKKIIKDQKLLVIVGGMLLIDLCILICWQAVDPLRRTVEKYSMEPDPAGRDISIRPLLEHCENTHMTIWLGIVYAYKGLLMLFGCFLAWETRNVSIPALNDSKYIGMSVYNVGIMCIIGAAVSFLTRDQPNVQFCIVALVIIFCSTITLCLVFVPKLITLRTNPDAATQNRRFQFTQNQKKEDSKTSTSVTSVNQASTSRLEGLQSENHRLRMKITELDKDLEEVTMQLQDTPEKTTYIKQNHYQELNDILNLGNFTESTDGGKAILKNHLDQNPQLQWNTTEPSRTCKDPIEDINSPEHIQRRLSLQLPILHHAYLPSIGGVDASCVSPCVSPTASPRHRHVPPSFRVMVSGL
T1 sequence (P47869 29-451): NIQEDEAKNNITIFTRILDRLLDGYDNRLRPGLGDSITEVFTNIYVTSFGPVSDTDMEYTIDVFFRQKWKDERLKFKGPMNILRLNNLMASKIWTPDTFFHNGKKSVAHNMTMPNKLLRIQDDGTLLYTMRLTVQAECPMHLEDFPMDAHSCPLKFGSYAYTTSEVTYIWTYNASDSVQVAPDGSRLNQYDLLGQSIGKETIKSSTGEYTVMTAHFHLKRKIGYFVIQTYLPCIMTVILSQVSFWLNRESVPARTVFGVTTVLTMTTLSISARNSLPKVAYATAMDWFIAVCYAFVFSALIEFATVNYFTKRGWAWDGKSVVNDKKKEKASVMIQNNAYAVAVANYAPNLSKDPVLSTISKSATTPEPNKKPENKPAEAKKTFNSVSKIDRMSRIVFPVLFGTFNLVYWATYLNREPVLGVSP
T1 sequence (P47870 25-512 limits assumed): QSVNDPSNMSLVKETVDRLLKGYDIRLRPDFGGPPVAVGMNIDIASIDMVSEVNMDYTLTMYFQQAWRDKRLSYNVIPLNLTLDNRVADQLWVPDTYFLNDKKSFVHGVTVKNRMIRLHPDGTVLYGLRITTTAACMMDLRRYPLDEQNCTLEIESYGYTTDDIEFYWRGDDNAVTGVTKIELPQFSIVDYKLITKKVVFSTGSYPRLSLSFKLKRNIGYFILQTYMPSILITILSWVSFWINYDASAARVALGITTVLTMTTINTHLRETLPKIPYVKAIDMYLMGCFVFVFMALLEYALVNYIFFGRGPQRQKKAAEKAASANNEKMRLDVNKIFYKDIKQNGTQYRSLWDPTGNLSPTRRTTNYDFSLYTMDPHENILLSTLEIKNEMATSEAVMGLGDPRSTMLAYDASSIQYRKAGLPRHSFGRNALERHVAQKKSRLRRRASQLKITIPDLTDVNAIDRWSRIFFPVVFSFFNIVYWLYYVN
T1 sequence (P18507 40-475 partner): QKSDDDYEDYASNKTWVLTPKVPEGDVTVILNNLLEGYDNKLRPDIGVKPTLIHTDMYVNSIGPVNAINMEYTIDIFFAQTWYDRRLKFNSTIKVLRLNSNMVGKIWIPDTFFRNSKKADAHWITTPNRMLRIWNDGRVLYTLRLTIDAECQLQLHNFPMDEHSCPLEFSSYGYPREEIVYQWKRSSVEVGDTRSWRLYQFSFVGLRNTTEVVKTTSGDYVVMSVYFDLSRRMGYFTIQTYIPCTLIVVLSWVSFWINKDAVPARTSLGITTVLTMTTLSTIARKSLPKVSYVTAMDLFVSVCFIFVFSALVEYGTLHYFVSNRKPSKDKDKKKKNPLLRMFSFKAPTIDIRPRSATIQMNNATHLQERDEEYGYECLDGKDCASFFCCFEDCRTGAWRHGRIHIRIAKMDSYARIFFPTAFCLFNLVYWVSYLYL
T3 sequence (P48169 36-554): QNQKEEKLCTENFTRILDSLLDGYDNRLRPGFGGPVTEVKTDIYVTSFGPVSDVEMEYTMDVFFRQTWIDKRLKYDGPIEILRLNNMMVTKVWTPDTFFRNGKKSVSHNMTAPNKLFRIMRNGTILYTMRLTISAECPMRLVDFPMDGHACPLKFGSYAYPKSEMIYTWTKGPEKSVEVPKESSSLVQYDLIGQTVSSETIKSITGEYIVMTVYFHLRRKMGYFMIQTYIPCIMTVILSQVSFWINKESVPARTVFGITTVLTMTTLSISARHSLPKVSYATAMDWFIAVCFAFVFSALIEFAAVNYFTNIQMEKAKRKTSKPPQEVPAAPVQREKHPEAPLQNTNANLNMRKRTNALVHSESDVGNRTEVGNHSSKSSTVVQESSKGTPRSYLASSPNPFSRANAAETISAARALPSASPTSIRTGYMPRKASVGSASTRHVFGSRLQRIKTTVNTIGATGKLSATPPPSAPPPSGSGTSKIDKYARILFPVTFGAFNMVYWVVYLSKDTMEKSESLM
T3 sequence (P47870 25-512 limits assumed): as the sequence (P47870 25-512 limits assumed) above
T3 sequence (P18507 40-475 partner): as the sequence (P18507 40-475 partner) above
T2 sequence (P48169 36-554): as the sequence (P48169 36-554) above
T2 sequence (P28472 26-473): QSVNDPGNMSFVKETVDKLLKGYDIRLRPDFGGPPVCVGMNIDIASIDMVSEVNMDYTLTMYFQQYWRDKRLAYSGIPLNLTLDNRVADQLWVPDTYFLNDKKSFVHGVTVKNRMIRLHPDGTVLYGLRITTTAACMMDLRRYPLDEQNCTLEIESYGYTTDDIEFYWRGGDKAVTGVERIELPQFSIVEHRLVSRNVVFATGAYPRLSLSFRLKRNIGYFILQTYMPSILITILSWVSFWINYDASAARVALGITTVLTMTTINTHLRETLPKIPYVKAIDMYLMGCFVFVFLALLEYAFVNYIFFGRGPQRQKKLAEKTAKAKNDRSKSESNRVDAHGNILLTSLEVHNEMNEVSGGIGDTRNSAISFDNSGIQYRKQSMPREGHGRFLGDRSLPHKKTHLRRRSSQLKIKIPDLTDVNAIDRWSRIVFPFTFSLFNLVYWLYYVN
T2 sequence (P18507 40-475 partner): as the sequence (P18507 40-475 partner) above

SMILES | EC50 (GABAA α2β2γ2) | % of radioligand binding inhibition, AMPA nonspec (AMPA nonspecific) | EC50 (GABAA α4β3γ2) | EC50 (GABAA α4β2γ2) | inhibition at 100 µM (GABAB (B1/B2))
C[C@@](N)(CCC(=O)O)C(=O)O [(R)-2MeGlu, (R)-2-methylglutamic acid] | 660 µM | 15% | > 1000 µM | > 1000 µM | 5%
C[C@](N)(CCC(=O)O)C(=O)O [(S)-2MeGlu, (S)-2-methylglutamic acid] | 530 µM | 12% | > 1000 µM | > 1000 µM | 5%
